Reference: patent US5756423A, “Method of controlling plants by inhibition of farnesyl pyrophosphate synthase” (Zeneca Limited, priority 1997, dated 1998)
Like-named read-outs stand apart in the source and are kept apart here.

Columns and labels:
[1] = system: farnesyl pyrophosphate synthase in daffodil chromoplasts; test: inhibition of farnesyl pyrophosphate synthase in daffodil chromoplasts (14C-isopentenyl pyrophosphate incorporation); assay type: biochemical, Narcissus pseudonarcissus; conditions: unit inferred, IC50 values in nM, read-out: IC50
Experimental: The IC50 value may be determined as follows. Daffodil chromoplasts are diluted to a volume of 500 microliters in a buffer containing 0.5M sucrose, 3 mM MgCl2, 1 mM ethylenediaminetetraacetic acid, 20 mM N-tris[hydroxymethyl]methyl-2-aminoethanesulfonic acid, […] N-[2-hydroxyethyl]-piperazine-N'-[2-ethanesulfonic acid], 5 mM L-cysteine, 10 mM sodium fluoride, and 0.1% bovine serum albumin at pH 7.7. The inhibitor to be tested may be dissolved in water other suitable solvent and then added to the reaction mixture. The assay is started by the addition of ^14 C-labeled isopentenyl pyrophosphate (52 Ci/mol) to give a final concentration in the assay of about 3 micromolar. The mixture is incubated at 30° C. with gentle agitation for a period of about 30 min. The reaction may be stopped by the addition of 0.5 mL of saturated NaCl and 2 mL of n-butanol saturated with water. After thorough mixing, the turbid suspensions are centrifuged briefly to separate the layers, and 1 mL of the bright yellow upper butanol layer is added to 10 mL of a suitable scintillation fluid which gives a single phase. The butanol soluble radioactivity is then measured in a scintillation counter.
In addition, the problem of variable quenching differences among different experiments can be essentially eliminated by determining the incorporation of radioactivity relative to controls. Each set of experiments requires two control tubes identical to the test samples except that they contain no inhibitor. One of these is quenched immediately (TO sample) and one is quenched at the end of the normal incubation period (T100 sample).
For each concentration of inhibitor examined the % residual activity is determined from the formula [formula]
Tightly closed daffodil flowers (Narcissus pseudonarcissus) were allowed to open at room temperature. […] Coronae were placed in twice their weight of isolation buffer consisting of 67 mM potassium phosphate, 0.74M sucrose, 5 mM MgCl2, and 0.2% polyvinyl-pyrrolidone at pH 7.6 and were disrupted by 30 seconds of homogenization at high speed in a Waring-type blender. The mixture was filtered through several layers of cheesecloth and 2 layers of 100 micron nylon mesh, and the resulting filtrate was centrifuged at 1000×g for 10 minutes. The pellet was discarded and supernatant was centrifuged at 22,000×g for 20 minutes. […] This solution was centrifuged at 22,000×g for 20 minutes to give orange pellets which were suspended in a buffer of 100 mM tris(hydroxymethyl)aminomethane at pH 7.6 containing 5mM MgCl2 and 2 mM dithiothreitol (1 ml per 10 coronae). This solution was frozen in liquid nitrogen and then stored at -80° C.
Thawed daffodil chromoplasts (100-150 microliters) were diluted to a final volume of 500 microliters in a buffer containing 0.5M sucrose, 3 mM MgCl2, 1 mM ethylenediaminetetraacetic acid, 10 mM N-[2-hydroxyethyl]piperazine-N^1 -[2-ethanesulfonic acid], 5 mM L-cysteine, 10 mM sodium fluoride, and 0.1% bovine serum albumin at pH 7.7. The inhibitor to be tested was dissolved in water or other suitable solvent and was added to the reaction mixture. The assay was started by the addition of ^14 C-labeled isopentenyl pyrophosphate (52 Ci/mol) to give a final concentration in the assay of about 3 micromolar. The mixture was incubated at 30° C. with gentle agitation for a period of about 30 minutes. The reaction was stopped by the addition of 0.5 mL of saturated NaCl and 2 mL of n-butanol saturated with water. After thorough mixing, the turbid suspensions were centrifuged briefly to separate the layers, and 1 mL of the bright yellow upper butanol layer was added to 10 mL of a suitable scintillation fluid which gave a single phase. The butanol soluble radioactivity was then measured in a scintillation counter. Each set of experiments required two control tubes identical to the test samples except that they contain no inhibitor.

[2] = system: wild oat (Avena fatua) (AVEFA); test: post-emergent herbicidal test, wild oat; assay type: in vivo; conditions: Avena fatua, post-emergence, read-out: AVEFA percent control; for pest or weed control at 4000 g/ha: 4.0 kg/ha
Text: (§1) Seeds of several different weed species were planted in sandy loam soil containing only trace organic matter. Propagules were sown in individuals rows using one species per row across the width of an aluminum flat (19.5×9.5×6 cm). The grass weeds planted were green foxtail (Setaria viridis) ("SETVI"), wild oat (Avena fatua) ("AVEFA"), barnyard grass (Enchinochloa crusgalli) ("ECHCG"). Broadleaf weeds utilized were wild mustard (Brassica kaber), also known as Sinapis arvensis, ("SINAR"), velvetleaf (Abutilon theophrasti) ("ABUTH") and morningglory (Ipomoea spp.) ("IPOSS"). Additionally, yellow nutsedge (Cyperus esculentus) ("CYPES"), nutlets were sown. Seeding depths ranged from 1.0 to 1.5 cm and plant densities ranged from 3 to 25 plants per row depending on individual plant species.
(§2) The flats were placed into a greenhouse and watered overhead by sprinkling. The greenhouse environmental systems provided the plants with natural and artificial (via metal halide lamps) lighting to attain 14 hours of light per day. Day and night temperatures were maintained at 29° and 21° C. respectively. The plants were grown for 10 to 12 days (or to the appropriate growth stage) prior to compound application. Grasses were sprayed at a 3 to 4 leaf stage and broadleaves at a 1 to 2 leaf stage. Yellow nutsedge was 5 to 7 cm tall at application.
(§3) Solutions of the test compounds were prepared by weighing out 18.8 and 74.7 mg for 1 and 4 kg/ha applications respectively, of the test compound into a 60 ml wide-mouth bottle, then dissolving the compound in 14.0 ml of deionized water containing 0.5% v/v Tween 20' (polyoxyethylene sorbitan monolaurate emulsifier) as a surfactant. Additional solvents, not exceeding 2 ml (15% of spray volume), were used if needed to dissolve the compound.
(§4) The plants were sprayed inside an enclosed linear spray table with the nozzle set at 30.5 cm (12 inches) above the foliage.
(§5) Treated plants were then returned to a greenhouse and watered daily without wetting the foliage.
(§6) The degree of weed control was evaluated 17-21 days after application and recorded as percentage of control as compared to the growth of the same species in an untreated control flat of the same. Percent control is the total injury to the plants due to all factors including: inhibited emergence, stunting, malformation, chlorosis and other types of plant injury. The control ratings range from 0 to 100 percent, where 0% represents no effect with growth equal to the untreated control and where 100% represents complete kill.

[3] = system: barnyard grass (Enchinochloa crusgalli) (ECHCG); test: post-emergent herbicidal test, barnyard grass; assay type: in vivo; conditions: Echinochloa crus-galli, post-emergence, read-out: ECHCG percent control; for pest or weed control at 4000 g/ha: 4.0 kg/ha
Text: as §1, §2, §3, §4, §5, §6

[4] = system: green foxtail (Setaria viridis) (SETVI); test: post-emergent herbicidal test, green foxtail; assay type: in vivo; conditions: Setaria viridis, post-emergence, read-out: SETVI percent control; for pest or weed control at 4000 g/ha: 4.0 kg/ha
Text: as §1, §2, §3, §4, §5, §6

[5] = system: velvetleaf (Abutilon theophrasti) (ABUTH); test: post-emergent herbicidal test, velvetleaf; assay type: in vivo; conditions: Abutilon theophrasti, post-emergence, read-out: ABUTH percent control; for pest or weed control at 4000 g/ha: 4.0 kg/ha
Text: as §1, §2, §3, §4, §5, §6

[6] = system: morningglory (Ipomoea spp.) (IPOSS); test: post-emergent herbicidal test, morningglory; assay type: in vivo; conditions: Ipomoea, post-emergence, read-out: IPOSS percent control; for pest or weed control at 4000 g/ha: 4.0 kg/ha
Text: as §1, §2, §3, §4, §5, §6

[7] = system: wild mustard (Brassica kaber), also known as Sinapis arvensis (SINAR); test: post-emergent herbicidal test, wild mustard; assay type: in vivo; conditions: Brassica, post-emergence, read-out: SINAR percent control; for pest or weed control at 4000 g/ha: 4.0 kg/ha
Text: as §1, §2, §3, §4, §5, §6

[8] = system: yellow nutsedge (Cyperus esculentus) (CYPES); test: post-emergent herbicidal test, yellow nutsedge; assay type: in vivo; conditions: Cyperus, post-emergence, read-out: CYPES percent control; for pest or weed control at 4000 g/ha: 4.0 kg/ha
Text: as §1, §2, §3, §4, §5, §6

[9] = post-emergent, 1.0 kg/ha (*), 17-21 days after application
[10] = post-emergent, 17-21 days after application

IC50 ([1]; Table I)	IC50 ([1]; Table II)	SMILES	pest or weed control at 1000 g/ha [2, 9]	pest or weed control at 1000 g/ha [3, 9]	pest or weed control at 1000 g/ha [4, 9]	pest or weed control at 1000 g/ha [5, 9]	pest or weed control at 1000 g/ha [6, 9]	pest or weed control at 1000 g/ha [7, 9]	pest or weed control at 1000 g/ha [8, 9]	other results
1730 nM	1730 nM	O=P(O)(O)C(CNC1CCc2ccccc21)P(=O)(O)O (stereo not drawn) [Compound 49]	60%	50%	15%	5%	10%	10%	10%	
316 nM	316 nM	C=CCCNCC(P(=O)(O)O)P(=O)(O)O [Compound 16]	80%	100%	90%	10%	10%	100%	20%	
93 nM	93 nM	CC1CCCN1CC(P(=O)(O)O)P(=O)(O)O (stereo not drawn) [Compound 43]	100%	98%	98%	30%	60%	100%	5%	
232 nM	232 nM	CC1CCCC1NCC(P(=O)(O)O)P(=O)(O)O (stereo not drawn) [Compound 50]	50%	60%	85%	5%	5%	85%	5%	
27 nM	27 nM	CCCN(C)CC(P(=O)(O)O)P(=O)(O)O [Compound 32]	100%	95%	100%	75%	85%	100%	25%	
479 nM	479 nM	CCCN(CCC(=O)O)CC(P(=O)(O)O)P(=O)(O)O [Compound 54]	0%	0%	10%	0%	5%	10%	0%	
1410 nM	1410 nM	O=P(O)(O)C(CNCCc1ccccc1)P(=O)(O)O [Compound 28]	60%	5%	30%	5%	5%	50%	10%	
425 nM	425 nM	O=P(O)(O)C(CNC1CCCCC1)P(=O)(O)O [Compound 5]								pest or weed control at 4000 g/ha [2, 10]: 98%; pest or weed control at 4000 g/ha [3, 10]: 98%; pest or weed control at 4000 g/ha [4, 10]: 98%; pest or weed control at 4000 g/ha [5, 10]: 60%; pest or weed control at 4000 g/ha [6, 10]: 60%; pest or weed control at 4000 g/ha [7, 10]: 100%; pest or weed control at 4000 g/ha [8, 10]: 10%

SMILES	IC50 ([1]; Table I)	IC50 ([1]; Table II)	pest or weed control at 1000 g/ha [2, 9]	pest or weed control at 1000 g/ha [3, 9]	pest or weed control at 1000 g/ha [4, 9]	pest or weed control at 1000 g/ha [5, 9]	pest or weed control at 1000 g/ha [6, 9]	pest or weed control at 1000 g/ha [7, 9]	pest or weed control at 1000 g/ha [8, 9]	other results
CCNCC(P(=O)(O)O)P(=O)(O)O [Compound 20]	150 nM	150 nM								pest or weed control at 1000 g/ha [2]: 40%; pest or weed control at 1000 g/ha [3]: 60%; pest or weed control at 1000 g/ha [4]: 50%; pest or weed control at 1000 g/ha [5]: 0%; pest or weed control at 1000 g/ha [6]: 0%; pest or weed control at 1000 g/ha [7]: 10%; pest or weed control at 1000 g/ha [8]: 15%
O=P(O)(O)C(O)(C1CCCN1)P(=O)(O)O (stereo not drawn) [Compound 2]	933 nM	933 nM								pest or weed control at 4000 g/ha [2, 10]: 0%; pest or weed control at 4000 g/ha [3, 10]: 0%; pest or weed control at 4000 g/ha [4, 10]: 60%; pest or weed control at 4000 g/ha [5, 10]: 0%; pest or weed control at 4000 g/ha [6, 10]: 0%; pest or weed control at 4000 g/ha [7, 10]: 90%; pest or weed control at 4000 g/ha [8, 10]: 5%
CNCC(P(=O)(O)O)P(=O)(O)O [Compound 25]	1680 nM	1680 nM								pest or weed control at 1000 g/ha [2]: 100%; pest or weed control at 1000 g/ha [3]: 100%; pest or weed control at 1000 g/ha [4]: 100%; pest or weed control at 1000 g/ha [5]: 98%; pest or weed control at 1000 g/ha [6]: 90%; pest or weed control at 1000 g/ha [7]: 100%; pest or weed control at 1000 g/ha [8]: 85%
